Here are results for five compounds from patent US20260357266A1, “COMPOSITION FOR KILLING A THERAPY-INDUCED SENESCENCE (TIS) CELLS AND USES THEREOF” (AJOU UNIVERSITY INDUSTRY-ACADEMIC COOPERATION FOUNDATION, priority 2022, published 2026).

Data set [1] deals with MCF7 control cells and TIS cells. The data set can be described thus: CCK8 assay and microscopy, senolytic effect on control and therapy-induced senescent (TIS) MCF7 cells. It counts as cell-based. As to conditions: for cell viability, TIS group compared to control group: CCK8, MCF7, FIG. 3b. As for the experimental part: FIGS. 3d and 3e show the results of CCK8 assay and microscopy performed to evaluate the cell killing effect of SGI-1776 after treating MCF7 cells (Ctrl and TIS) with another PIM1 kinase inhibitor, SGI-1776 (Selleckhem, Catalog No. S2198, CAS 1025065-69-3).
Therapy-induced senescent breast cancer cells were treated with the FDA-approved inhibitors (Table 1) for the 23 genes finally selected in Example 2, the senescent cell-selective cell division inhibitory effect and senolytic effect of the drugs were evaluated by CCK8 assay (D-Plus CCK, cell viability assay kit, Cat CCK-3000, Dong-In LS) (FIG. 3A). In this case, for the control group (cancer cells without therapy-induced senescence), the measurement was made after treatment with the inhibitor at the indicated concentration for 48 hours, and for the therapy-induced senescent cell group, the cancer cells were induced to senescence by treatment with adriamycin for 48 hours as described in Example 1, and then treated with the indicator at the indicated concentration for 48 hours while replacing the culture medium, the inhibitor was treated at the indicated concentration for 48 hours, and then the measurement was made.
(Tetrazolium dyes change colour on reduction, which living cells bring about.)

The test system of data set [2] is breast cancer cell lines (MCF7, ZR75-1, Hs578T, and MDA-MB-231). The data set can be described thus: Cell size and SA-β-gal staining after therapy-induced senescence by adriamycin. The settings on record: 100 nM adriamycin for 48 h, then medium replaced and cultured 5 to 7 days. In kind it is cell-based. The method, then:
(§1) To generate therapy-induced senescent tumor cells, breast cancer cell lines with contrasting characteristics (MCF7 and ZR75-1, which are female hormone receptor-positive but relatively less malignant, and Hs578T and MDA-MB-231, which are hormone receptor- and HER2 receptor-negative triple-negative breast cancer cell lines and are relatively more aggressive) were each treated with 100 nM of adriamycin (Selleckhem, Catalog No. S1208, CAS 25316-40-9). After 48 hours, the cell culture medium was replaced and the cells were cultured for 5 to 7 days, thereby generating therapy-induced senescent tumor cells.

In the next data set the test system is p21. Description: p21 mRNA expression after therapy-induced senescence by adriamycin. As to conditions: 100 nM adriamycin for 48 h, then medium replaced and cultured 5 to 7 days; MCF7, ZR75-1, Hs578T, MDA-MB-231. In kind it is cell-based. The method, then:
as §1

Data set [3] deals with senescent cell types, including senescent cancer cells. The settings on record: literature (Aging Cell 15, 428-435 (2016); Nat. Med. 22, 78-83 (2016)); cited from earlier work.
For data set [4], the system named is SNU601, HSC4, and SW480 cells (control and TIS). Description: CCK8 assay and microscopy, senolytic effect on control and TIS gastric, head and neck and colon cancer cells. It counts as cell-based. The settings on record: FIG. 5. As for the experimental part: FIGS. 5a and 5b show the results of microscopy and CCK8 assay performed to evaluate the cell killing effect of PIM 1/2 inhibitor VI on control (Ctrl) cells and therapy-induced senescent (TIS) cells after treating cancer cell lines (HSC4: head and neck cancer, SNU601: gastric cancer, and SW480: colon cancer) with PIM 1/2 inhibitor VI.
Therapy-induced senescent breast cancer cells were treated with the FDA-approved inhibitors (Table 1) for the 23 genes finally selected in Example 2, the senescent cell-selective cell division inhibitory effect and senolytic effect of the drugs were evaluated by CCK8 assay (D-Plus CCK, cell viability assay kit, Cat CCK-3000, Dong-In LS) (FIG. 3A). […]
In order to evaluate the senolytic effect of a Pim-1 kinase inhibitor on gastric cancer (SNU601), head and neck cancer (HSC4), and colon cancer (SW480) cell lines induced to senescence by treatment, the concentration-dependent senolytic effect of the Pim-1 kinase inhibitor was evaluated in the same manner as described in Example 3.

Data set [5] relates to various cancer cell lines (MCF7, MDA-MB 231, MKN1, HSC4, and SNU869). The data set can be described thus: Therapy-induced senescence by cisplatin in various cancer cell lines. In kind it is cell-based. The settings on record: 10 μM cisplatin; MCF7, MDA-MB 231, MKN1, HSC4, SNU869. As for the experimental part: (§2) In addition, in order to examine whether therapy-induced senescence (TIS) occurs even when using anticancer agents other than adriamycin, various cancer cell lines (MCF7, MDA-MB 231, MKN1, HSC4, and SNU869) were treated with 10 μM of cisplatin (Selleckhem, Catalog No. S1166 CAS 15663-27-1).

Another data set concerns PIM-1 kinase. The data set can be described thus: PIM-1 kinase mRNA/protein expression after therapy-induced senescence. It counts as cell-based. The settings on record: 10 μM cisplatin; MCF7, MDA-MB 231, MKN1, HSC4, SNU869.
Description: In addition to breast cancer cell lines (MCF7 and MDA-MB231), gastric cancer (SNU601, MKN1, and MKN74), colon cancer (SW480, and Hct116), head and neck cancer (HSC4), cervical cancer (HeLa S3), cholangiocarcinoma (SNU308, SNU478, and SNU1196), pancreatic adenocarcinoma (BxPC3), and prostate cancer (PC3) cell lines were induced to senescence by treatment in the same manner as in Example 1, thereby obtaining therapy-induced senescent cells.
as §2

For the compound `CN1CCC(CNc2ccc3ncc(-c4cccc(OC(F)(F)F)c4)n3n2)CC1` [SGI-1776], the “cytotoxicity to TIS cells compared to control cells” value in data set [1] (FIG. 3D, MCF7) is “high cytotoxicity to the TIS cells compared to the control cells”.
Take `COc1cccc2c1C(=O)c1c(O)c3c(c(O)c1C2=O)C[C@@](O)(C(=O)CO)C[C@@H]3O[C@H]1C[C@H](N)[C@H](O)[C@H](C)O1` [adriamycin]: in data set [2], the cell size entry is “the cell size of each breast cancer cell line increased” and the “number of cells positive to SA-b-gal” value was “the number of cells positive to SA-b-gal, a senescence marker, increased”. For the same compound, the “mRNA expression of p21” value in the data set with p21 is recorded as “increase significantly in each cell line”.
As for `CC1(C)CCC(c2ccc(Cl)cc2)=C(CN2CCN(c3ccc(C(=O)NS(=O)(=O)c4ccc(N[C@H](CCN5CCOCC5)CSc5ccccc5)c(S(=O)(=O)C(F)(F)F)c4)cc3)CC2)C1` [ABT-263], the “elimination of senescent cell types” value in data set [3] is reported as “able to effectively eliminate a wide range of senescent cell types, including senescent cancer cells”. In addition, the “cell viability, TIS group compared to control group” value in data set [1] is “significantly inhibited in a therapy-induced senescent cell group compared to a control group”. For the same compound, the “killing effect on both control and TIS cells” value in data set [1] (FIGS. 3B and 3C) is “almost complete killing effect on both the control and TIS cells”. In addition, in data set [1] (FIGS. 3B and 3C, difference between control and TIS cells), the “killing effect, control vs TIS cells” value was “significant difference between the killing effect on the control cell and the killing effect on the TIS cells”.
As for `CCCOc1ccc(/C=C2\SC(=O)NC2=O)cc1` [PIM1/2 kinase inhibitor VI], in data set [4] (SNU601, HSC4, SW480 TIS cells), the “killing effect on therapy-induced senescent cancer cells” value is reported as “significant killing effect on the therapy-induced senescent cancer cells”. For the same compound, in data set [4] (SNU601, HSC4, SW480 control cells), the “killing effect on control cells” value is “no significant killing effect on the control cells”. Also, the “cell viability, TIS group compared to control group” value in data set [1] is recorded as “significantly inhibited in a therapy-induced senescent cell group compared to a control group”. The “selective senolytic effect on therapy-induced senescent tumor cells” value in data set [1] (CCK8, inhibitor 48 h, TIS by adriamycin vs control, FIG. 3A) is listed as “exhibited a selective senolytic effect on the therapy-induced senescent tumor cells”. Further, the “killing effect on TIS cells” value in data set [1] (FIGS. 3B and 3C, TIS cells) was “effectively killed the TIS cells”. Besides, the “cell growth and killing of control cells” value in data set [1] (FIGS. 3B and 3C, control cells, high concentrations) is recorded as “inhibited cell growth in the control cells at high concentrations but hardly killed the control cells”. In addition, the “senolytic effect on senescent cells compared with ABT-263” value in data set [1] (FIGS. 3B and 3C, versus ABT-263) is on record as “significantly superior to that of ABT-263”. Further, the “killing effect on therapy-induced senescent tumor cells compared to normal tumor cells” value in data set [1] (summary statement, tumor cells induced to senescence by a chemotherapeutic agent) is recorded as “a significant killing effect was observed on the therapy-induced senescent tumor cells compared to normal tumor cells”.
In the case of `N.N.[Cl][Pt][Cl]` [cisplatin], the “occurrence of therapy-induced senescence (TIS)” value in data set [5] is “therapy-induced senescence (TIS) occurred”. Besides, in the data set with PIM-1 kinase, the “mRNA expression of the PIM-1 kinase gene” value was “significantly increased”.
